The text below walks through data of patent publication US20250163022A1, “PARP1 INHIBITORS” (Synnovation Therapeutics, Inc., priority 2021, published 2025).

In the assay the target is T1, PARP1 (Homo sapiens, UniProt P09874).
T1 construct: HeLa cells (wide-type with PARP1 gene) were purchased from ATCC; host or cells: HeLa (wild type)
T1 sequence (P09874 whole entry): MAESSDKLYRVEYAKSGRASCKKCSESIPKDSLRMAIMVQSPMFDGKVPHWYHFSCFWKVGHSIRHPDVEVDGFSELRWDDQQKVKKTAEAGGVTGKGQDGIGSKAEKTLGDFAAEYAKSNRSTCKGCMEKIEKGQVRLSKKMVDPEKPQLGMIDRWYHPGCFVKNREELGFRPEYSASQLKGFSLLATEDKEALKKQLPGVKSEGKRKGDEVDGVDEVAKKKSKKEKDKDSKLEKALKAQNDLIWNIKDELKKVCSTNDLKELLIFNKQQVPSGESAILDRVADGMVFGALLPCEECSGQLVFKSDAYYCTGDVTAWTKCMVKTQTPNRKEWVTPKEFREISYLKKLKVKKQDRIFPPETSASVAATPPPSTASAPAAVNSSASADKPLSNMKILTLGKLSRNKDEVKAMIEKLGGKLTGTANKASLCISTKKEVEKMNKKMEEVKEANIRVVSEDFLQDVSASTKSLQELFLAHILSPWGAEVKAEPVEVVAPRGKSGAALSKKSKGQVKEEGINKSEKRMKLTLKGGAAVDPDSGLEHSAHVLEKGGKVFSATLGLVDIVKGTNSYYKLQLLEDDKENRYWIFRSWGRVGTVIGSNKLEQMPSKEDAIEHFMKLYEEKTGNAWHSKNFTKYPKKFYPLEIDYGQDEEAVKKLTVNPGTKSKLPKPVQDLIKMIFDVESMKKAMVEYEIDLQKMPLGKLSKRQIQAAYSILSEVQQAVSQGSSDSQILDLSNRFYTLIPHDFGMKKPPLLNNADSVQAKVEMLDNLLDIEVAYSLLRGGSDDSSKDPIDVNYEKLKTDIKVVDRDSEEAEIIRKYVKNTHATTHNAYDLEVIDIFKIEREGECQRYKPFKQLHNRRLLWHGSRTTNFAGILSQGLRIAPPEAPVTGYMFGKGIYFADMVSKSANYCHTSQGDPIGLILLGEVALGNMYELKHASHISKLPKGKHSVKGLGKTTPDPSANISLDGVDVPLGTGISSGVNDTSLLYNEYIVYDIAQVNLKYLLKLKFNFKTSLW
Briefly: In-Cell Western measurement of PARylation in PARP1 WT and knockout cells. Format: cell-based. The note with it: HeLa cells (wide-type with PARP1 gene); hydrogen peroxide-induced PARylation; compounds 30 min, then 10 mM hydrogen peroxide 15 min; read-out: HeLa_WT_IC50. An excerpt:
The purpose of this cell-based assay is to measure the potency and selectivity of synthesized PARP inhibitors in suppressing hydrogen peroxide-induced PARylation in cells with and without PARP1 expression. Several cell lines were used in this assay. The human PARP1 knockout HEK-293T cell line (#ab266598) was purchased from Abcam, and its corresponding wide-type control is the human wild-type HEK-293T cell line (#ab255449). The HAP1 isogenic cell lines with and without the PARP1 gene (#HZGHC003943c006) were purchased from Horizon Discovery. HeLa cells (wide-type with PARP1 gene) were purchased from ATCC. Cells were cultured using complete medium containing 10% fetal bovine serum. One day before the assay, cells were seeded in 96-well plates at the density of 20,000 cells per well in 100 uL complete medium. Compounds were dissolved using DMSO and diluted to the working concentrations using complete medium. Cells were pre-treated with compounds for 30 min and then stimulated with 10 mM hydrogen peroxide for 15 min. After stimulation, cells were immediately fixed using ice-cold methanol for 20 min. After fixation, cells were washed using 1×PBST buffer for 3 times, 5 min each time, to eliminate residual methanol. Cells were blocked for 2 h at room temperature in blocking buffer (LI-COR Biosciences, #927-70001). Primary antibody was diluted in diluent buffer (LI-COR Biosciences, #927-75001, 1:200) at 50 uL per well. Cells were incubated with the primary antibody at 4° C. for 18 h. The wells were then washed using 1×PBST for 3 times, 5 min each time. IRDye® 680RD Goat anti-Mouse IgG (H+L) secondary antibody was diluted at 1/2000 using the diluent buffer and added at 100 μL per well. Secondary antibody incubation was for 1 h at room temperature. Cells were then washed using 1×PBST for 3 times, 5 min each time. The signal was detected and analyzed using LI-COR Odyssey DLx Imaging system. Data were collected and further processed using GraphPad Prism for IC50 estimation.
In the case of `CCN1C(=O)Nc2cc(CN3CCN(c4ccc(C(=O)NC)nc4)CC3)cc3ncnc1c23` [Compound I-15, 5-(4-((3-Ethyl-2-oxo-2,3-dihydro-1H-pyrimido[4,5,6-de]quinazolin-8-yl)methyl)piperazin-1-yl)-N-methylpicolinamide], the IC50 is at most 10 nM.
As for `CCN1C(=O)Nc2c(F)c(CN3CCN(c4ccc(C(=O)N[C@H]5C[C@@H](C#N)C5)nc4C)CC3)cc3ncnc1c23` [Compound I-65, N-((1s,3s)-3-cyanocyclobutyl)-5-(4-((3-ethyl-9-fluoro-2-oxo-2,3-dihydro-1H-pyrimido[4,5,6-de]quinazolin-8-yl)methyl)piperazin-1-yl)-6-methylpicolinamide], the IC50 is at most 10 nM.
In the case of `[2H]C([2H])([2H])NC(=O)c1ccc(N2CCN(Cc3cc(F)c4c(=O)n(CC)c(=O)[nH]c4c3)CC2)c(C([2H])([2H])[2H])n1` [Compound I-36, 5-(4-((3-Ethyl-5-fluoro-2,4-dioxo-1,2,3,4-tetrahydroquinazolin-7-yl)methyl)piperazin-1-yl)-N,6-bis(methyl-d3)picolinamide], the IC50 was at most 10 nM.
As to `CCn1c(=O)[nH]c2cc(CN3CCN(c4ccc(C(=O)NC)nc4C)CC3)ccc2c1=O` [Compound I-16, 5-(4-((3-ethyl-2,4-dioxo-1,2,3,4-tetrahydroquinazolin-7-yl)methyl)piperazin-1-yl)-N,6-dimethylpicolinamide], the IC50 is at most 10 nM.
In the case of `CNC(=O)c1ccc(N2CCN(Cc3ncc4c5c(c(=O)[nH]c4c3F)CCC5)CC2)c(C)n1` [Compound I-25, 5-(4-((4-Fluoro-6-oxo-6,7,8,9-tetrahydro-5H-cyclopenta[c][1,6]naphthyridin-3-yl)methyl)piperazin-1-yl)-N,6-dimethylpicolinamide] it was at most 10 nM; in that of `CCN1Cc2ccc(CN3CCN(c4ccc(C(=O)NC)nc4)CC3)cc2NC1=O` [Compound I-2, 5-(4-((3-Ethyl-2-oxo-1,2,3,4-tetrahydroquinazolin-7-yl)methyl)piperazin-1-yl)-N-methylpicolinamide], 10 to 100 nM.
`CCn1c(=O)[nH]c2cc(CN3CCN(c4ccc(C(=O)NC)nc4C)CC3)cc(Cl)c2c1=O` [Compound I-32, 5-(4-((5-chloro-3-ethyl-2,4-dioxo-1,2,3,4-tetrahydroquinazolin-7-yl)methyl)piperazin-1-yl)-N,6-dimethylpicolinamide]: the IC50 was at most 10 nM.
Under `CCn1c(=O)[nH]c2cc(CN3CCN(c4ccc(C(=O)NC)nc4)CC3)cnc2c1=O` [Compound I-9, 5-(4-((3-Ethyl-2,4-dioxo-1,2,3,4-tetrahydropyrido[3,2-d]pyrimidin-7-yl)methyl)piperazin-1-yl)-N-methylpicolinamide] stands 100 to 500 nM; under `CCN1C(=O)Nc2c(F)c(CN3CCN(c4ccc(C(=O)NC)nc4C)CC3)cc3c2c1nn3C` [Compound I-34, 5-(4-((3-Ethyl-6-fluoro-1-methyl-4-oxo-1,3,4,5-tetrahydropyrazolo[3,4,5-de]quinazolin-7-yl)methyl)piperazin-1-yl)-N,6-dimethylpicolinamide], at most 10 nM.
Under `CCN1C(=O)Nc2c(F)c(CN3CCN(c4ccc(C(=O)N[C@H]5CCCOC5)nc4C)CC3)cc3ncnc1c23` [Compound I-63, (S)-5-(4-((3-ethyl-9-fluoro-2-oxo-2,3-dihydro-1H-pyrimido[4,5,6-de]quinazolin-8-yl)methyl)piperazin-1-yl)-6-methyl-N-(tetrahydro-2H-pyran-3-yl)picolinamide] stands at most 10 nM.
In the case of `CCNC(=O)c1ccc(N2CCN(Cc3cc(Cl)c4c(=O)n(CC)c(=O)[nH]c4c3)CC2)c(C)n1` [Compound I-48, 5-(4-((5-chloro-3-ethyl-2,4-dioxo-1,2,3,4-tetrahydroquinazolin-7-yl)methyl)piperazin-1-yl)-N-ethyl-6-methylpicolinamide] it was at most 10 nM; in that of `CNC(=O)c1ccc(N2CCN(Cc3ccc4c5c(c(=O)[nH]c4c3)CCC5)CC2)cn1` [Compound I-4, N-methyl-5-(4-((4-oxo-2,3,4,5-tetrahydro-1H-cyclopenta[c]quinolin-7-yl)methyl)piperazin-1-yl)picolinamide], at most 10 nM.
